Measurements from US20060094645A1, “Method for defining and treating chemically-induced immune disorders using tumor necrosis factor (TFNalpha), interleukin-1 (lL-1), and interleulin-6R(lL-6R) antagonists” (priority 2004, published 2006).

Biological target: T1, TNF (Homo sapiens, UniProt P01375)
T1 construct: endogenous in cells; host or cells: the patients' own TNF in vivo
Assay: Case report: Arthritis and Vasculitis associated with silicone breast implants, anti-TNF treatment
Format: in vivo
Conditions: patient after implant removal; earlier treatment for over 20 years with corticosteroids and methotrexate

T1 sequence (P01375 77-233 limits assumed): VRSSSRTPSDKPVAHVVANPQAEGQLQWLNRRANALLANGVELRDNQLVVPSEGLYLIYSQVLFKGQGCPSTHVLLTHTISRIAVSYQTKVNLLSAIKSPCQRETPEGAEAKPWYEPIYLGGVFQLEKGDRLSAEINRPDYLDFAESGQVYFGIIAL

## CN(Cc1cnc2nc(N)nc(N)c2n1)c1ccc(C(=O)N[C@@H](CCC(=O)O)C(=O)O)cc1 [methotrexate]
  outcome of Arthritis and Vasculitis associated with silicone breast implants: without success
